This note sets out measurements from US12545745B2, “Method for treating a degenerative neurological disorders comprising administering ASM inhibitor” (KYUNGPOOK NATIONAL UNIVERSITY INDUSTRY-ACADEMIC COOPERATION …, priority 2013, dated 2026).

Where a name gives a salt, the structure may show the parent alone.

One data set has as its system human fibroblast. The data set is described as follows: Autophagy (LC3-I to LC3-II conversion) in human fibroblast treated with recombinant ASM, M6P or NH4Cl. The data set is classed as cell-based. As to the method: Human fibroblast acquired from the Coriell Institute, and was cultured in DMEM medium containing 15% FBS at 37° C. and 5% of CO2. The cell lines were treated with recombinant ASM (1 μM to 10 μM), and then Western blotting and densitometric quantification were performed in the same manner as Example 2-1. The results are illustrated in FIG. 17 and FIG. 18.
In order to confirm how ASM affects autophagy, a test was conducted as follows. Human fibroblast was treated with ASM alone, or treated with ASM in the presence of mannose-6-phosphate (M6P; 10 mM) relating to the action of placing lysosomal enzyme protein in lysosome, and then the accumulation of autophagosome was confirmed using Western blotting and densitometric quantification. The results are illustrated in FIG. 19.
In order to confirm whether ASM increases the formation rate of autophagosome, or decreases the degradation rate of autophagosome, autophagic flux assay was performed. […] The results are illustrated in FIG. 20.
Also, when treating with NH4Cl or ASM after culturing fibroblast of human with Alzheimer's disease in a serum-free medium or complete medium, the conversion rate from LC3-I to LC3-II was measured using Western blotting. The results are illustrated in FIG. 21 and FIG. 22.

A further data set deals with T1, ASM (Mus musculus, UniProt Q04519).
T1 construct: from tissue; host or cells: mouse serum/plasma and brain tissue (APP/PS1, RSD-stressed C57BL/6, FUS R521C mice)
T1 sequence (Q04519 45-627): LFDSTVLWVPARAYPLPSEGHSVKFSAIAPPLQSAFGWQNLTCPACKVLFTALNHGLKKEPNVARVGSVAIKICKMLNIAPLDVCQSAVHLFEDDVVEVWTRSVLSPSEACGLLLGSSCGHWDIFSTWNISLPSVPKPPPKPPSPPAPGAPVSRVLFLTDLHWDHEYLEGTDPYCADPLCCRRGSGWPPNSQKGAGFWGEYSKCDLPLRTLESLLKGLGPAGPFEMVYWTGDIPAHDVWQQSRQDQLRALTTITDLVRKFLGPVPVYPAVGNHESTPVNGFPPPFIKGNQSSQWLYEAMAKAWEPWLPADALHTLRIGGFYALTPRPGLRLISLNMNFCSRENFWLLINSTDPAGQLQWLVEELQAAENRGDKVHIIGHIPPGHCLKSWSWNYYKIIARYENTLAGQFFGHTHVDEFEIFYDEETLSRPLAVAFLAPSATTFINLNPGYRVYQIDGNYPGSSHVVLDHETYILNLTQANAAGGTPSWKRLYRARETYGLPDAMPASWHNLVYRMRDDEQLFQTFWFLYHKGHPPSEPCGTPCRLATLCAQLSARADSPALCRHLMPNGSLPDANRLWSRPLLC
In words: ASM activity / concentration level in serum (plasma) and brain tissue of APP/PS1 mice (UPLC). Format: in vivo. To be noted: APP/PS1 mice, AMI administered for four months, nine month old; FIG. 24.

In another data set the test system is APP/PS1 mice. The data set is described as follows: Morris water maze (MWM) test in APP/PS1 mice. To be noted: AMI for four months, vs control group, FIG. 26. Format: in vivo, mouse. As for the experimental part: More specifically, wild type mice, APP/PS1/ASM^+/− mice, ASM^+/− mice and APP/PS1 mice were used. The mice were given four trials per day for 10 days to learn the task, and on day 11, the mice were given a probe trial in which the platform was removed. The escape latency during the test period and the time spent in the target platform on day 11 were measured. The results are illustrated in FIG. 7 and FIG. 8.
MWM (Morris water maze) experiments were performed in a conventional manner to identify potential effects on learning and memory. Briefly, for the MWM test, mouse were learned the task four times a day for 10 days, followed by the removal of the platform on the 11th day and subsequently a probe trial performed.
MWM (Morris water maze) experiments were performed in a conventional manner to identify potential effects on learning and memory. Briefly, for the MWM test, mice were learned the task four times a day for 10 days, followed by the removal of the platform on the 11th day and subsequently a probe trial performed.

The next data set deals with β-amyloid. In words: β-amyloid deposition in brain tissue of APP/PS1 mice (thioflavin S, immunofluorescence, ELISA). Format: in vivo, mouse. To be noted: cerebral cortex and hippocampus, AMI for four months, FIG. 25. As for the experimental part:
First, the cerebral cortex and hippocampus tissue of each mouse prepared in Example 1-1 were isolated, and then a tissue fragment was obtained and this was dyed with thioflavin S according to a conventional known method. The results are illustrated in FIG. 3 (cerebral cortex) and FIG. 4 (hippocampus).
Also, immunofluorescence was performed according to a conventional known method using anti-20G10 (mouse, 1:1000) antibody against Aβ42, anti-G30 (rabbit, […]) antibody against Aβ40, anti-Iba-1 (rabbit, 1:500, Wako) antibody, anti-GFAP (rabbit, 1:500, DAKO) antibody and anti-active caspase3 (rabbit, 1:50, Chemicon) antibody. Tissue fragments were observed using a confocal laser scanning microscope equipped with Fluoview SV1000 imaging software (Olympus FV1000, Japan) or an Olympus BX51 microscope, and the percentage of the area of the dyed area with respect to the area of the entire tissue was quantified using Metamorph software (Molecular Devices).
Also, β-amyloid deposition was confirmed using commercially available ELISA kits (Biosource). More specifically, hemispheres of the brain of each mouse were homogenized in a buffer containing 0.02 M of guanidine. Thereafter, ELISA was performed for Aβ40 and Aβ42 according to the manufacturer's instructions.
After fixing the cerebral and hippocampal tissues of the mice, 0.5% thioflavin S (Sigma-Aldrich), anti-20G10 antibodies (mouse, 1:1000) against Aβ42, anti-G30 antibodies (rabbit, […]) against Aβ40, anti-GFAP antibodies (rabbit, 1:500, DAKO), or anti-Iba-1 antibodies (rabbit, 1:500, Wako) were co-cultured. The tissues were analyzed using a laser scanning confocal microscope equipped with Fluoview SV1000 imaging software (Olympus FV1000, Japan) or an Olympus BX51 microscope. Percentage of stained area to total tissue area was quantified and analyzed using Metamorph software (Molecular Devices).
After fixing the mouse brain and hippocampus, 0.5% thioflavin S (Sigma-Aldrich), anti-GFAP (rabbit, 1:500, DAKO), and anti-Iba-1 (rabbit, 1:500, WAKO) were co-cultured together. The regions were analyzed using a laser scanning confocal microscope equipped with Fluoview SV1000 imaging software (Olympus FV1000, Japan) or an Olympus BX51 microscope. Percentage of stained area to total tissue area was quantified and analyzed using Metamorph software (Molecular Devices).
Proteins were extracted from mouse brain and hippocampus, and the amounts of Abeta40 (KHB3481, Invitrogen) and Abeta42 (KHB3441, Invitrogen) were measured using ELISA.
A general note: In an ELISA, binding on a coated surface is turned into a signal by an enzyme label.

[1] abbreviates: human fibroblast treated with ASM in the presence of M6P 10 mM, FIG. 19.
[2] abbreviates: human fibroblast, recombinant ASM 1 μM to 10 μM, FIG. 17, 18.

For `O=C[C@@H](O)[C@@H](O)[C@H](O)[C@H](O)COP(=O)(O)O` [M6P, mannose-6-phosphate, reference compound], in the data set on human fibroblast (setting [1]), the “accumulation of ASM-induced autophagosome” value is recorded as “decreased” and the “conversion to LC3-II” value is listed as “decreased”.
Consider `CN(C)CCC=C1c2ccccc2CCc2ccccc21` [AMI, amitriptyline-hydrochloride, reference compound], for which, at ASM, the “ASM in brain tissue” value is “decreased” and the ASM in serum entry is “decreased”. Besides, the “ability to remember (escape latency, MWM)” value in the data set with APP/PS1 mice is “recovered by decrease in escape latency”. Moreover, in the data set with β-amyloid, the “deposition of β-amyloid” value is listed as “inhibited”.
For the molecule `Cl.N` [NH4Cl, reference compound], the LC3-II level entry with human fibroblast (fibroblast of human with Alzheimer's disease, serum-free medium (autophagy induced), NH4Cl added, FIG. 21) was “increased significantly”.

B1: recombinant ASM: recombinant acid sphingomyelinase protein used to treat human fibroblast (protein)
chain: LALSDSRVLWAPAEAHPLSPQGHPARLHRIVPRLRDVFGWGNLTCPICKGLFTAINLGLKKEPNVARVGSVAIKLCNLLKIAPPAVCQSIVHLFEDDMVEVWRRSVLSPSEACGLLLGSTCGHWDIFSSWNISLPTVPKPPPKPPSPPAPGAPVSRILFLTDLHWDHDYLEGTDPDCADPLCCRRGSGLPPASRPGAGYWGEYSKCDLPLRTLESLLSGLGPAGPFDMVYWTGDIPAHDVWHQTRQDQLRALTTVTALVRKFLGPVPVYPAVGNHESTPVNSFPPPFIEGNHSSRWLYEAMAKAWEPWLPAEALRTLRIGGFYALSPYPGLRLISLNMNFCSRENFWLLINSTDPAGQLQWLVGELQAAEDRGDKVHIIGHIPPGHCLKSWSWNYYRIVARYENTLAAQFFGHTHVDEFEVFYDEETLSRPLAVAFLAPSATTYIGLNPGYRVYQIDGNYSGSSHVVLDHETYILNLTQANIPGAIPHWQLLYRARETYGLPNTLPTAWHNLVYRMRGDMQLFQTFWFLYHKGHPPSEPCGTPCRLATLCAQLSARADSPALCRHLMPDGSLPEAQSLWPRPLFC
On to B1, for which the “amount of LC3-II (autophagic flux assay)” value in the data set with human fibroblast (cells treated with ASM and NH4Cl, FIG. 20) is given as “no significant change”. In addition, the “accumulation of LC3-II” value with human fibroblast (fibroblast of human with Alzheimer's disease, serum-free medium (autophagy induced), treated with ASM, FIG. 22) is on record as “increased significantly”. Also, in the data set with human fibroblast (setting [2]), the “conversion from LC3-I to LC3-II” value is recorded as “takes place depending on the concentration” and the “expression of beclin-1” value is “no significant change”.
